Data reported in ChEMBL document CHEMBL3301361, “Experimental in vitro DMPK and physicochemical data on a set of publicly disclosed compounds”.

Assay: physchem
Conditions: octan-1-ol/water, pH 7.4, LogD7.4

Compound | logD
CN(C)CC(O)COc1ccc(Nc2nccc(Nc3cc(Cl)ccc3Cl)n2)cc1 (stereo not given) | 2.9
O=C(O)CC[C@@H]1c2ccccc2C[C@H]1NC(=O)c1cc2sc(Cl)c(Cl)c2[nH]1 | 2.84
FC(F)(F)c1cc(COCC(c2ccccc2)N2CCNCC2)cc(C(F)(F)F)c1 (stereo not given) | 2.9
CC(C)C(NC(=O)Cn1c(C2CCCCC2)ncc(NC(=O)OCc2ccccc2)c1=O)C(=O)C(F)(F)F (stereo not given) | 2.87
O=S(=O)(Cc1ccccc1)NCC(c1ccccc1)N1CCCCCC1 (stereo not given) | 2.83
O=S(=O)(NCC(c1ccccc1)N1CCCCCC1)c1ccc(F)c(F)c1 (stereo not given) | 2.84
Cc1cc2n[nH]c(=O)n2c2cc(-c3ccc(C(=O)N4CCOCC4)cc3)ccc12 | 2.77
Cc1cc2n[nH]c(=O)n2c2cc(-c3ccc(CO)cc3)ccc12 | 2.86
Cc1c(-c2ccc(O)cc2)c(=O)oc2cc(O)ccc12 | 2.8
CC1=C(C2=C(C)C(=O)c3c(cc(O)c(O)c3Cc3ccccc3)C2=O)C(=O)c2cc(O)c(O)c(Cc3ccccc3)c2C1=O | 2.73
CS(=O)(=O)c1cccc(Nc2nccc(Nc3cccc4ocnc34)n2)c1 | 2.9
O=C(COCc1ccncc1)N1CCC(c2ccc(Cl)cc2)CC1 | 2.74
NC(=O)c1sc2nccc(Nc3ccccc3)c2c1N | 2.91
COc1ccccc1C(=O)Nc1nc2ccccc2[nH]1 | 2.9
CSc1ncccc1C(=O)NCC1CCCCC1 | 2.93
Cc1cc(Nc2ncc(F)c(N[C@H]3[C@@H](C(N)=O)[C@@H]4C=C[C@H]3C4)n2)ccc1N1CCN(C)CC1 | 2.9
O=c1ccnc2cc(C#Cc3ccccc3)ccn12 | 2.9
N#Cc1cccc(COc2ccc3c(c2)OCCC3=O)c1 | 2.8
CC(=O)N1CCOc2cc(COc3ccccc3)cnc21 | 2.8
CCCC(=O)NCc1cncc(-c2ccc(F)cc2OC)c1 | 2.9
COc1cc(F)ccc1-c1cncc(CNC(=O)C2CC2)c1 | 2.9
CS(=O)(=O)c1ccc(CC(=O)N(C2CC2)C2CCN(CCC(c3ccccc3)c3ccccc3)CC2)cc1 | 2.89
CCC(c1nc2ccsc2c(=O)n1Cc1ccccc1)N(CCCN)C(=O)c1ccc(C(C)C)cc1 (stereo not given) | 2.72

Compound | logD
COCCOc1ccc(C(=O)Nc2cc(NC(=O)c3cccc(N(C)C)c3)ccc2C)cc1 | 2.74
O=C(Nc1ccccc1)c1cc(Cl)ccc1O | 2.9
CCN(C(=O)Cc1ccc(S(C)(=O)=O)cc1)C1CCN(CCC(c2ccccc2)c2ccc(C#N)cc2)CC1 (stereo not given) | 2.76
CCCCCSc1nc2nc(N)sc2c(=O)[nH]1 | 2.86
Cc1ccc(-c2c[nH]cn2)cc1NC(=O)c1ccc(OCc2ccccn2)cc1 | 2.81
Cc1ccc(-c2nccn2C)cc1NC(=O)c1ccc(OCc2ccccn2)cc1 | 2.83
Cc1ccc(-c2[nH]cnc2C)cc1NC(=O)c1ccc(OCc2ccccn2)cc1 | 2.87
Cc1ccc(-c2cn(C)c(C)n2)cc1NC(=O)c1ccc(OCc2ccccn2)cc1 | 2.71
Clc1ccccc1CNC[C@H]1CC[C@H](CNCc2ccccc2Cl)CC1 | 2.74
C[C@@H]1CN(c2noc(C(F)F)n2)CCN1c1ncc(OCc2ccncc2C#N)cn1 | 2.85
Cc1cc(Nc2nc(NCc3ccccn3)ncc2Br)n[nH]1 | 2.8
Nc1ncc(-c2ccc(S(=O)(=O)N3CCOCC3)cc2)nc1C(=O)Nc1cccnc1 | 2.83
CCc1cc(O)c(Oc2ccc(C(N)=O)cc2F)cc1F | 2.87
CNS(=O)(=O)c1ccc2c(C(=O)NC[C@@H](O)CN3CCC(Oc4ccc(Cl)c(Cl)c4)CC3)c[nH]c(=O)c2c1 | 2.77
Cc1c(Cl)ccc(OC2CCN(C[C@H](O)CNC(=O)c3c[nH]c(=O)c4cc(S(C)(=O)=O)ccc34)CC2)c1Cl | 2.83
CS(=O)(=O)c1ccc(C(=O)NC[C@@H](O)CN2CCC(Oc3ccc(Cl)c(Cl)c3)CC2)s1 | 2.86
Nc1cccc(CCc2ccc3cc[nH]c3c2)n1 | 2.8
COc1cc(-c2ccncc2)cc2cnc(Nc3ccc([C@@H](C)NC(C)=O)cc3)nc12 | 2.73
COc1ccc(-c2ccc3c(N4CCOC[C@@H]4C)nc(N4CCOC[C@@H]4C)nc3n2)cc1C(N)=O | 2.82
CC(C)C[C@H](CO)Nc1nc(SCc2ccncc2)nc2nc(N)sc12 | 2.9
CCOC(=O)[C@H](Cc1ccc([N+](=O)[O-])cc1)NC(=O)c1ccccc1 | 2.79
CN1CCc2c1nc1ccccc1c2NC(=O)Cc1ccccc1 | 2.8
O=C1C(=O)c2cc(-c3ccccc3F)ccc2-c2ccccc21 | 2.92

Compound | logD
COc1ccc(OC(F)(F)F)cc1CN[C@H]1CCCN[C@H]1c1ccccc1 | 2.9
CC(C)C(NC(=O)Cn1c(-c2ccccc2)ccc(NC(=O)NCc2cccnc2)c1=O)C(=O)C(F)(F)F (stereo not given) | 2.84
CCCc1c(OCc2ccc(-c3nn[nH]n3)cc2OC)ccc(C(C)=O)c1O | 2.8
Cc1ccc(NC(=O)c2cccc(N(C)C)c2)cc1NC(=O)c1ccc(OCc2ccccn2)cc1 | 2.83
CC(C)N1CCN(C(=O)NCc2ccc(Cl)c(Cl)c2)CC1 | 2.75
O=[N+]([O-])c1ccc2[nH]c(-c3ccccn3)nc2c1 | 2.8
O=C(NC1Cc2ccccc2N(CC(=O)N2CCC(O)CC2)C1=O)c1cc2cc(Cl)sc2[nH]1 (stereo not given) | 2.86
COc1cc2ncc(C(N)=O)c(Nc3ccccc3Cl)c2cc1OC | 2.89
CC(C)C[C@@H](CO)NS(=O)(=O)c1ccc(Cl)s1 | 2.8
Cc1ccc(S(=O)(=O)c2ccccc2)cc1 | 2.74
Cc1ncc(-c2nc(Nc3ccc(C(=O)N(C)C)cc3)ncc2F)n1C(C)C | 2.77
Cc1ncc(-c2ccnc(Nc3ccc(C(N)=O)c(F)c3)n2)n1C(C)C | 2.8
c1ccc(CNc2nc3ccccc3[nH]2)cc1 | 2.76
O=c1oc2ccc(O)cc2cc1-c1ccc(O)cc1 | 2.9
COC(=O)CCCCCCC(=O)Nc1ccc2c(c1)C(=O)C(=O)c1ccccc1-2 | 2.9
CC(C)(C)C(=O)Nc1ccc2c(c1)C(=O)C(=O)c1ccccc1-2 | 2.83
COC(=O)CCC(=O)Nc1ccc2c(c1)-c1ccccc1C(=O)C2=O | 2.72
Cc1ccc(NC(=O)c2cccc(OCC(C)C)c2)cc1C(=O)Nc1cccnc1 | 2.81
COc1cc2ncc(C(N)=O)c(Nc3ccc(F)cc3)c2cc1OC | 2.82
CCCCC(NC(=O)CC1CCN(Cc2ccn(-c3ccc(C(F)(F)F)cc3)c2)CC1)c1ccc(=O)[nH]c1 (stereo not given) | 2.89
CN1CCN(c2nc(NCCNc3ccc([N+](=O)[O-])cc3)c3ccccc3n2)CC1 | 2.91
CN(C)CC1CCn2c(c(C3=C(c4cn(C)c5ccccc45)C(=O)NC3=O)c3ccccc32)C1 (stereo not given) | 2.88

Now from value to compound:

logD | Compound
2.8 | C#CCN(c1cc(Nc2ccc(OCC(O)CN(C)C)cc2)ncn1)c1cc(Cl)ccc1Cl (stereo not given)
2.8 | Brc1cc(Br)cc(COC[C@H](c2ccccc2)N2CCNCC2)c1
2.86 | N#Cc1ccc(S(=O)(=O)NCC(c2ccccc2)N2CCCCCC2)cc1 (stereo not given)
2.72 | Cc1cc2n[nH]c(=O)n2c2cc(-c3cccnc3)ccc12
2.79 | CC1(c2ccc(Cl)cc2)CCN(C(=O)COCc2ccncc2)CC1
2.8 | COc1ccc(-c2coc3cc(O)cc(O)c3c2=O)cc1OC
2.78 | CC(O)(C(=O)Nc1ccc(S(=O)(=O)c2ccc(O)cc2)cc1)C(F)(F)F (stereo not given)
2.93 | COc1ccc(Cn2c(=O)[nH]c3c(=O)n(CC(=O)NC(C(=O)C(F)(F)F)C(C)C)c(-c4ccccc4)cc3c2=O)cc1 (stereo not given)
2.82 | Cc1ccc(S(=O)(=O)Nc2ccc(/C=C/C(=O)Nc3ccccc3N)cc2)cc1
2.84 | CC[C@H](NC(=O)c1c([S+](C)[O-])c(-c2ccccc2)nc2c(F)cccc12)c1ccccc1 (stereo not given in full)
2.75 | CC[C@H](NC(=O)c1c([S+](C)[O-])c(-c2ccccc2)nc2cc(CN(C)C)ccc12)c1ccccc1 (stereo not given in full)
2.9 | Nc1ccc2c(c1)C(=O)c1ccccc1-2
2.9 | c1ccc(-c2cn3ccccc3n2)cc1
2.8 | O=c1oc2c(O)cccc2cc1-c1ccc(O)cc1
2.75 | COc1cc(-c2c(F)ccc3c(N)c(C(=O)NC4CC4)nnc23)c(OC)nn1
2.86 | CN(CC[C@@H](Oc1ccc(-c2ccccc2)cc1)c1ccc(F)cc1)CC(=O)O
2.9 | CC(=O)Nc1ccc(CC(=O)N(C)C2CCN(CCC(c3ccccc3)c3ccccc3)CC2)cc1
2.9 | O=c1oc2cc(O)ccc2cc1-c1ccc(O)cc1
2.9 | O=S(=O)(Nc1cc(F)ccc1F)c1ccc(Cl)cc1

logD | Compound
2.8 | Cc1cccc(Cn2ccn3c(=O)cc(N4CCOCC4)nc23)c1
2.9 | O=C(Nc1ccc(N2CCOCC2)nc1)c1nnc(Nc2ccc(F)c(F)c2)o1
2.74 | O=C(Nc1cccc(Cl)c1)N1CCN(C[C@@H]2CCCN(C3CC3)C2)CC1
2.9 | CC(=O)N(C)c1ccc2ccn(-c3cc(NC4CC4)n4ncc(C#N)c4n3)c2c1
2.87 | CCn1c(=O)c2c(-c3cncn3C)n(Cc3ccnc4ccc(Cl)cc34)nc2n(CC2CC2)c1=O
2.87 | CC(C)Cn1c(=O)n(C)c(=O)c2c(C(=O)N3CC[C@@H](O)C3)c(Oc3cccc4ccccc34)sc21
2.93 | CNc1cc(C(=O)Nc2ccc(N3CCOCC3)cc2)nc2c(N3CCN(C)CC3)cc(OC)cc12
2.78 | COCCC(=O)Nc1ccc(Nc2ncc3cc(-c4ccncc4)ccc3n2)cc1
2.88 | CC(=O)N(C)c1ccc(Nc2ncc3cc(-c4ccncc4)ccc3n2)cc1
2.78 | CNC(=O)C1(N2CCCCC2=O)CCN(CC[C@H](CN(C)C(=O)c2c(OC)c(C#N)cc3ccccc23)c2ccc(Cl)c(Cl)c2)CC1
2.83 | C[C@@H](O)[C@@H](CO)Nc1nc(SCc2cccc(F)c2F)nc2nc(N)sc12
2.88 | CC(=O)NC[C@H]1CN(c2ccc(N3Cc4cccnc4C3)c(F)c2)C(=O)O1
2.9 | COc1cc2ncc(C(N)=O)c(Nc3cc(F)ccc3F)c2cc1OC
2.86 | Cc1cc(Nc2ncc(F)c(-c3cnc(C)n3C(C)C)n2)ccc1C(=O)N(C)C
2.81 | CCCC(=O)Nc1ccc2c(c1)C(=O)C(=O)c1ccccc1-2
2.9 | CC(C)(C)NC(=O)[C@@H]1CN(Cc2cccnc2)CCN1C[C@@H](O)C[C@@H](Cc1ccccc1)C(=O)N[C@H]1c2ccccc2C[C@H]1O
2.9 | CS(=O)(=O)c1ccc(C(CCNC(=O)c2ccc(C#N)cc2)c2ccc(F)cc2)cc1 (stereo not given)
2.8 | CN(Cc1ccc(Cl)cc1)C(=O)C1(N)CCN(c2ncnc3[nH]ccc23)CC1
